biological target: T1, Aβ1-40 peptide (Homo sapiens, UniProt P05067); assay: Inhibition of aggregation of monomeric Aβ1-40 peptide stimulated by a seed of pre-formed sonicated Aβ1-40 amyloid fibrils (HPLC of residual monomer); assay type: biochemical; conditions: 20 μM Aβ1-40 monomer, 50 μM test compound, 4 μM pre-formed sonicated Aβ1-40 fibrils, 2 h at 37° C., pH 7.4
T1 construct: An Aβ1-40 peptide monomer stock solution was prepared by dissolving the peptide in dimethylsulfoxide
Method: The compounds disclosed in the present invention interfere with the aggregation of monomeric Aβ1-40 peptide stimulated by a seed of Aβ1-40 amyloid fibrils. The activity of the compounds was assessed according to the procedure reported below.
An Aβ1-40 peptide monomer stock solution was prepared by dissolving the peptide in dimethylsulfoxide at a concentration of 33.33 mg/ml. The stock solution was further diluted 11.5 times with dimethylsulfoxide. This solution was then diluted with 10 mM phosphate buffer pH 7.4 containing 150 mM sodium chloride to prepare the test solution. To an eppendorf tube containing 47 μl of Aβ1-40 peptide monomer solution were added 3 μl of a 830 μM water solution of the test compound containing 66.4 μM, based on the Aβ1-40 monomer content, of pre-formed sonicated Aβ1-40 fibrils: the resulting solution was 20 μM in Aβ1-40 monomer, 50 μM in the test compound and contained 4 μM, based on the Aβ1-40 monomer content, of pre-formed sonicated Aβ1-40 fibrils. The aggregation was allowed to proceed for two hours at 37° C. The suspension was then centrifuged at 15000 rpm for 15 minutes at +4° C., the supernatant was collected and the Aβ1-40 monomer was quantitated by HPLC. The activity is expressed as the percent of inhibition of the aggregation of a 20 μM Aβ1-40 monomer solution stimulated by 4 μM, based on the Aβ1-40 monomer content, pre-formed sonicated Aβ1-40 fibrils.

T1 sequence (P05067 672-711 limits assumed): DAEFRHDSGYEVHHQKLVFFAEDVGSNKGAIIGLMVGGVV

Q: For COc1cccc2c1C(=O)c1c(O)c3c(c(O)c1C2=O)CC(O)(C(=O)CN1CC=CCC1)CC3O (stereo not shown) [Compound 1a, 14-(1,2,3,6-tetrahydropyridin-1-yl)daunomycinone], which “% inhibition” value is on record?
A: 74.1%

Q: With COc1cccc2c1C(=O)c1c(O)c3c(c(O)c1C2=O)CC(O)(C(O)CN1CC=CCC1)CC3 [Compound 1d, (13R)-7-deoxy-13-dihvdro-14-(1,2,3,6-tetrahydropyridin-1-yl)daunomycinone] as the compound, how does the “% inhibition” value read?
A: 47.3%

Q: For COc1cccc2c1C(=O)c1c(O)c3c(c(O)c1C2=O)CC(O)(C(=O)CN1CCOCC1)CC3 (stereo not shown) [Compound A17, 7-deoxy-14-(4-morpholinyl)-daunomycinone, reference compound], which “% inhibition” value is on record?
A: 11.4%

Q: How did the “% inhibition” value turn out when COc1cccc2c1C(=O)c1c(O)c3c(c(O)c1C2=O)CC(O)(C(=O)CN1CC=CCC1)CC3N1CCOCC1 (stereo not shown) [Compound 1k, 7-deoxy-7-(4-morpholinyl) -14-(1,2,3,6-tetrahydropyridin-1-yl)daunomycinone] was run?
A: 52.1%

— patent publication US6268362A, “Amino anthracyclinone derivatives and their use in the treatment of amyloidosis” (Pharmacia & Upjohn SpA, priority 1998, dated 2001)
